SMILES strings stand for the structures. pIC50: −log10 of the molar value. Structures can show the parent of a compound that is named as a salt.

The target of this experiment is T1, human CGT (ceramide galactosyltransferase), CHO/CGT lysate (Homo sapiens, UniProt Q16880).
T1 construct: Full-length human CGT cDNA was cloned into the BamH1/Xho1 site of pcDNA3.1 (+); expressed in transfected cells; host or cells: Chinese hamster ovary (CHO) cells; lysate prepared with M-PER
T1 sequence (Q16880 21-541): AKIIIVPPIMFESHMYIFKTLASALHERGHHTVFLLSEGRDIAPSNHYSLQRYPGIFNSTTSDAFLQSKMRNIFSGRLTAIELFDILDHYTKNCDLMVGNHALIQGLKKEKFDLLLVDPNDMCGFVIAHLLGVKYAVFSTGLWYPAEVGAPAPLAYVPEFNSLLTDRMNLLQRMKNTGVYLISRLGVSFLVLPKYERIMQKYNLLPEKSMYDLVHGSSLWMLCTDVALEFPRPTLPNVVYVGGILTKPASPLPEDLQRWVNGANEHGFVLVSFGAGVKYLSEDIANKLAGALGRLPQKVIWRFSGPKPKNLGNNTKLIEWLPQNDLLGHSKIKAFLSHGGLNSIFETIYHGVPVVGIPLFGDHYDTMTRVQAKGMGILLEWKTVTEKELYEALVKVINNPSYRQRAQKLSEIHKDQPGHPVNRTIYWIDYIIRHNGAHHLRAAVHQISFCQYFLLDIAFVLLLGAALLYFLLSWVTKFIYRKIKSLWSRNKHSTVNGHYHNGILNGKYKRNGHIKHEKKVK
The experiment can be described thus: CGT enzyme assay, RapidFire/MS/MS readout with 0.01% Tween added (Table 1 ranges with two asterisks **). It is filed as biochemical. Conditions: CGT enzymatic assay; range with two asterisks (**): RapidFire/MS/MS method with 0.01% Tween added. The gist of the method: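 IC50s come from variable-slope dose-response fits of internal-standard-normalized C6-NBD-dihydro-galactosylceramide, measured by RapidFire/MS/MS (ESI negative). Reactions: 1 h, 37 °C, human CGT-expressing CHO lysate (4 μg), 0.001–50 μM compound, 10 μM NBD-dihydro-ceramide, 17.5 μM UDP-galactose, 0.5% DMSO, pH 7.2; 0.01% Tween 80 added for ** values.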
Take `N[C@@H]1CCN(C(=O)[C@H](NS(=O)(=O)c2ccc(OCC3CCCCC3)cc2)C(F)(F)c2ccc(-c3ccc(Cl)cc3)cc2)C1` [Compound 155-2, N—((S)-3-((R)-3-aminopyrrolidin-1-yl)-1-(4′-chloro-[1,1′-biphenyl]-4-yl)-1,1-difluoro-3-oxopropan-2-yl)-4-(cyclohexylmethoxy) benzenesulfonamide trifluoroacetate]: the pIC50 is 5.00 to 6.00.
As to `NC1CCN(C(=O)[C@@H](NS(=O)(=O)c2ccc(OCC3CCCCC3)cc2)C(F)(F)c2ccc(-c3ccccc3)cc2)CC1` [Compound 156-1, (R)—N-(1-([1,1′-biphenyl]-4-yl)-3-(4-aminopiperidin-1-yl)-1,1-difluoro-3-oxopropan-2-yl)-4-(cyclohexylmethoxy)benzenesulfonamide trifluoroacetate], the pIC50 was 5.00 to 6.00.
In the case of `NC1CCN(C(=O)[C@H](NS(=O)(=O)c2ccc(OCC3CCCCC3)cc2)C(F)(F)c2ccc(-c3ccccc3)cc2)CC1` [Compound 156-2, (S)—N-(1-([1,1′-biphenyl]-4-yl)-3-(4-aminopiperidin-1-yl)-1,1-difluoro-3-oxopropan-2-yl)-4-(cyclohexylmethoxy)benzenesulfonamide trifluoroacetate], the pIC50 was 4.00 to 4.52.
The value for `CN(CCCN)C(=O)[C@@H](NS(=O)(=O)c1ccc2cc(OC3CCCC3)ccc2c1)C(F)(F)c1ccc(-c2ccc(Cl)cc2)cc1` [Compound 157-1, (R)—N-(3-aminopropyl)-3-(4′-chloro-[1,1′-biphenyl]-4-yl)-2-((6-(cyclopentyloxy)naphthalene)-2-sulfonamido)-3,3-difluoro-N-methylpropanamide] was 5.00 to 6.00.
To `CN(CCCN)C(=O)[C@H](NS(=O)(=O)c1ccc2cc(OC3CCCC3)ccc2c1)C(F)(F)c1ccc(-c2ccc(Cl)cc2)cc1` [Compound 157-2, (S)—N-(3-aminopropyl)-3-(4′-chloro-[1,1′-biphenyl]-4-yl)-2-((6-(cyclopentyloxy)naphthalene)-2-sulfonamido)-3,3-difluoro-N-methyl propanamide] belongs 4.00 to 4.52; to `NC1CC2CCC(C1)N2C(=O)[C@@H](NC(=O)[C@H](O)c1ccc2cc(OC3CCCC3)ccc2c1)C(F)(F)c1ccc2cc(Br)ccc2c1` (stereo partly drawn) [Compound 158-1, (2R)—N-((2R)-3-(3-amino-8-azabicyclo[3.2.1]octan-8-yl)-1-(6-bromonaphthalen-2-yl)-1,1-difluoro-3-oxopropan-2-yl)-2-(6-(cyclopentyloxy)naphthalen-2-yl)-2-hydroxyacetamide trifluoroacetate], 5.00 to 6.00.
To `NC1CC2CCC(C1)N2C(=O)[C@H](NC(=O)[C@@H](O)c1ccc2cc(OC3CCCC3)ccc2c1)C(F)(F)c1ccc2cc(Br)ccc2c1` (stereo partly drawn) [Compound 158-2, (2S)—N-((2 S)-3-(3-amino-8-azabicyclo[3.2.1]octan-8-yl)-1-(6-bromonaphthalen-2-yl)-1,1-difluoro-3-oxopropan-2-yl)-2-(6-(cyclopentyloxy)naphthalen-2-yl)-2-hydroxyacetamide trifluoroacetate] belongs 4.00 to 4.52.
In the case of `NC1CC2CCC(C1)N2C(=O)[C@@H](NC(=O)[C@@H](O)c1ccc2cc(OC3CCCC3)ccc2c1)C(F)(F)c1ccc2cc(Br)ccc2c1` (stereo partly drawn) [Compound 158-3, (2S)—N-((2R)-3-(3-amino-8-azabicyclo[3.2.1]octan-8-yl)-1-(6-bromonaphthalen-2-yl)-1,1-difluoro-3-oxopropan-2-yl)-2-(6-(cyclopentyloxy)naphthalen-2-yl)-2-hydroxyacetamide trifluoroacetate], the pIC50 was 4.52 to 5.00.
The compound `NC1CC2CCC(C1)N2C(=O)[C@H](NC(=O)[C@H](O)c1ccc2cc(OC3CCCC3)ccc2c1)C(F)(F)c1ccc2cc(Br)ccc2c1` (stereo partly drawn) [Compound 158-4, (2R)—N-((2S)-3-(3-amino-8-azabicyclo[3.2.1]octan-8-yl)-1-(6-bromonaphthalen-2-yl)-1,1-difluoro-3-oxopropan-2-yl)-2-(6-(cyclopentyloxy)naphthalen-2-yl)-2-hydroxyacetamide trifluoroacetate] showed a pIC50 of 4.00 to 4.52.
Take `NC1CCN(C(=O)[C@@H](NC(=O)[C@H](O)c2ccc3cc(OC4CCCC4)ccc3c2)C(F)(F)c2ccc(-c3ccc(Cl)cc3)cc2)CC1` [Compound 159-1, (R)—N—((R)-3-(4-aminopiperidin-1-yl)-1-(4′-chloro-[1,1′-biphenyl]-4-yl)-1,1-difluoro-3-oxopropan-2-yl)-2-(6-(cyclopentyloxy)naphthalen-2-yl)-2-hydroxyacetamide trifluoroacetate]: the negative-log IC50 (pIC50) was 5.00 to 6.00.
In turn, `NC1CCN(C(=O)[C@H](NC(=O)[C@@H](O)c2ccc3cc(OC4CCCC4)ccc3c2)C(F)(F)c2ccc(-c3ccc(Cl)cc3)cc2)CC1` [Compound 159-2, (S)—N—((S)-3-(4-aminopiperidin-1-yl)-1-(4′-chloro-[1,1′-biphenyl]-4-yl)-1,1-difluoro-3-oxopropan-2-yl)-2-(6-(cyclopentyloxy)naphthalen-2-yl)-2-hydroxyacetamide trifluoroacetate] had a pIC50 of 4.00 to 4.52.
Turning to `NC1CCN(C(=O)[C@@H](NC(=O)[C@@H](O)c2ccc3cc(OC4CCCC4)ccc3c2)C(F)(F)c2ccc(-c3ccc(Cl)cc3)cc2)CC1` [Compound 159-3, (S)—N—((R)-3-(4-aminopiperidin-1-yl)-1-(4′-chloro-[1,1′-biphenyl]-4-yl)-1,1-difluoro-3-oxopropan-2-yl)-2-(6-(cyclopentyloxy)naphthalen-2-yl)-2-hydroxyacetamide trifluoroacetate], the pIC50 was 5.00 to 6.00.
As to `NC1CCN(C(=O)[C@H](NC(=O)[C@H](O)c2ccc3cc(OC4CCCC4)ccc3c2)C(F)(F)c2ccc(-c3ccc(Cl)cc3)cc2)CC1` [Compound 159-4, (R)—N—((S)-3-(4-aminopiperidin-1-yl)-1-(4′-chloro-[1,1′-biphenyl]-4-yl)-1,1-difluoro-3-oxopropan-2-yl)-2-(6-(cyclopentyloxy)naphthalen-2-yl)-2-hydroxyacetamide trifluoroacetate], the pIC50 was 4.00 to 4.52.
To `NC1CC2CCC(C1)N2C(=O)[C@@H](NC(=O)C(=O)c1ccc2cc(OC3CCCC3)ccc2c1)C(F)(F)c1ccc2cc(Br)ccc2c1` (stereo partly drawn) [Compound 160-1, N-((2R)-3-(3-amino-8-azabicyclo[3.2.1]octan-8-yl)-1-(6-bromonaphthalen-2-yl)-1,1-difluoro-3-oxopropan-2-yl)-2-(6-(cyclopentyloxy)naphthalen-2-yl)-2-oxoacetamide trifluoroacetate] belongs 4.52 to 5.00; to `NC1CC2CCC(C1)N2C(=O)[C@H](NC(=O)C(=O)c1ccc2cc(OC3CCCC3)ccc2c1)C(F)(F)c1ccc2cc(Br)ccc2c1` (stereo partly drawn) [Compound 160-2, N-((2S)-3-(3-amino-8-azabicyclo[3.2.1]octan-8-yl)-1-(6-bromonaphthalen-2-yl)-1,1-difluoro-3-oxopropan-2-yl)-2-(6-(cyclopentyloxy)naphthalen-2-yl)-2-oxoacetamide trifluoroacetate], 4.00 to 4.52; to `N[C@@H]1CCN(C(=O)[C@@H](NS(=O)(=O)c2ccc3cc(OC4CCCC4)ccc3c2)C(F)(F)c2ccc(-c3ccc(Cl)cc3)cc2)CC1(F)F` [Compound 161-1, N—((R)-3-((R)-4-amino-3,3-difluoropiperidin-1-yl)-1-(4′-chloro-[1,1′-biphenyl]-4-yl)-1,1-difluoro-3-oxopropan-2-yl)-6-(cyclopentyloxy)naphthalene-2-sulfonamide trifluoroacetate], 5.00 to 6.00.

A word on the pIC50: it is the IC50 on a negative log10 scale, so that one unit is a factor of ten.

The values are drawn from patent US20190322676A1, “CERAMIDE GALACTOSYLTRANSFERASE INHIBITORS FOR THE TREATMENT OF DISEASE” (BioMarin Pharmaceutical Inc., priority 2016, published 2019).
